Data as given in patent US9624214B2, “Amino-substituted imidazo[1,2-a]pyridinecarboxamides and their use” (BAYER PHARMA AKTIENGESELLSCHAFT, priority 2012, dated 2017).

These compounds were tested against T1, recombinant guanylate cyclase reporter cell line (Rattus norvegicus, UniProt P19686+P20595) (assay: B-2. Action on recombinant guanylate cyclase reporter cell line). Settings: MEC = minimal effective concentration; in some cases mean values from individual determinations.
T1 construct: expressed in transfected cells
T1 sequence (P20595 1-619): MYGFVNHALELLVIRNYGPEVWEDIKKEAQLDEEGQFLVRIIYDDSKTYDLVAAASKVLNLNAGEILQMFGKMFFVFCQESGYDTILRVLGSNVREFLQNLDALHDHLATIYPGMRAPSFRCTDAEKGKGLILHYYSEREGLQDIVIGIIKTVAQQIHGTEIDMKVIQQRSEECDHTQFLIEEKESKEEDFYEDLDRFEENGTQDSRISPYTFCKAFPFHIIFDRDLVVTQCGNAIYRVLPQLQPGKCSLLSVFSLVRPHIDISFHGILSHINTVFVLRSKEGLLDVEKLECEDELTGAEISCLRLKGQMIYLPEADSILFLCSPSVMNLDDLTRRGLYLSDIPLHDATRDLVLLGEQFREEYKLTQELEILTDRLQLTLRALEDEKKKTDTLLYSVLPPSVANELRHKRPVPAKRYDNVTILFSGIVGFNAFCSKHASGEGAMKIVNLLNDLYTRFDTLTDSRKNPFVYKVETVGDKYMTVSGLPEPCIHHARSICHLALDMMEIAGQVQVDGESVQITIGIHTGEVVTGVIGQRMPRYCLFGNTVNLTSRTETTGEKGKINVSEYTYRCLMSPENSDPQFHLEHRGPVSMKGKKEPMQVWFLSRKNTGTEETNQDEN
T1 sequence (P19686 1-690): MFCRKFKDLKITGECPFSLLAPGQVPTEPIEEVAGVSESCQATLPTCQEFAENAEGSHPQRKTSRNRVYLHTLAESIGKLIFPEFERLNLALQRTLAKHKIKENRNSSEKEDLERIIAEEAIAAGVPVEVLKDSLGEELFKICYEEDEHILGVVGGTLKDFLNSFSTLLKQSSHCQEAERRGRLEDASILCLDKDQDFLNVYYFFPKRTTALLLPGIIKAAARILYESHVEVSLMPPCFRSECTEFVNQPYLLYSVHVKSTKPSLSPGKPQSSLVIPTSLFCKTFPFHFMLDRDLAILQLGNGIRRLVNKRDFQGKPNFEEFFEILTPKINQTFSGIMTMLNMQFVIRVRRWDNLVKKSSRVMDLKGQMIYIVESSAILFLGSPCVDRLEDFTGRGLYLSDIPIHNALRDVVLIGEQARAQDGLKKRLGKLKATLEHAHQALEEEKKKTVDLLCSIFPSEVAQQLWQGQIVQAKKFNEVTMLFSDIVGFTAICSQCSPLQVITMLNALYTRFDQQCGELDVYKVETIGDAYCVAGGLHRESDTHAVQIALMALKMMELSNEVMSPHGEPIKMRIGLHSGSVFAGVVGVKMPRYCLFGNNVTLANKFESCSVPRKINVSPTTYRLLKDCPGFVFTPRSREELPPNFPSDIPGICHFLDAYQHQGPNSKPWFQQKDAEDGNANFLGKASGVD
Assay type: cell-based
Method: B-2. Action on Recombinant Guanylate Cyclase Reporter Cell Line
The cellular action of the compounds according to the invention is determined on a recombinant guanylate cyclase reporter cell line, as described in F. Wunder et al., Anal. Biochem. 339, 104-112 (2005).
Representative MEC values (MEC=minimal effective concentration) for the compounds according to the invention are shown in the following table (in some cases as mean values obtained from individual determinations): […]

Row | SMILES | MEC
1 | Cc1nc2c(OCc3c(F)cccc3F)cc(Cl)cn2c1C(=O)NCC(C)(C)N1CCCC1 [Example 148, 6-chloro-8-[(2,6-difluorobenzyl)oxy]-2-methyl-N-[2-methyl-2-(pyrrolidin-1-yl)-propyl]imidazo[1,2-a)pyridine-3-carboxamide] | 1.00 µM
2 | CCCC[C@H](CN1CCOCC1)NC(=O)c1c(C)nc2c(OCc3c(F)cccc3F)cccn12 [Example 64, ent-8-[(2,6-Difluorobenzyl)oxy]-2-methyl-N-[(2R)-1-(morpholin-4-yl)hexan-2-yl]imidazo[1,2-a]-pyridine-3-carboxamide] | 0.30 µM
3 | Cc1nc2c(OCc3c(F)cccc3F)cc(Cl)cn2c1C(=O)NCC1CCCCN1 (single isomer, unassigned; ent-6) [Example 190, ent-6-Chloro-8-[(2,6-difluorobenzyl)oxy]-2-methyl-N-(piperidin-2-ylmethyl)imidazo[1,2-a]-pyridine-3-carboxamide] | 1.00 µM
4 | Cc1nc2c(OCc3c(F)cccc3F)cc(Cl)cn2c1C(=O)NCC(C)(N)C(F)(F)F (single isomer, unassigned) [Example 238, ent-N-(2-Amino-3,3,3-trifluoro-2-methylpropyl)-6-chloro-8-[(2,6-difluorobenzyl)oxy]-2-methylimidazo[1,2-a]pyridine-3-carboxamide] | 1.00 µM
5 | Cc1nc2c(OCC3CCCCC3)cccn2c1C(=O)NC(CN)c1ccc(F)c(F)c1 (single isomer, unassigned) [Example 179, ent-N-[2-Amino-1-(3,4-difluorophenyl)ethyl]-8-(cyclohexylmethoxy)-2-methylimidazo[1,2-a]-pyridine-3-carboxamide] | 1.00 µM
6 | CCC(C)(N)CNC(=O)c1c(C)nc2c(OCc3c(F)ccc(F)c3F)cc(C)cn12 (single isomer, unassigned; enantiomer a) [Example 274, ent-N-(2-Amino-2-methylbutyl)-2,6-dimethyl-8-[(2,3,6-trifluorobenzyl)oxy]imidazo[1,2-a]-pyridine-3-carboxamide (Enantiomer A)] | 0.10 µM
7 | Cc1cc(OCc2c(F)cccc2F)c2nc(C)c(C(=O)N[C@H]3C[C@H]4CN(C)CCN4C3)n2c1 [Example 314, 8-[(2,6-Difluorobenzyl)oxy]-2,6-dimethyl-N-[(7S,8aS)-2-methyloctahydropyrrolo[1,2-a]pyrazin-7-yl]imidazo[1,2-a]pyridine-3-carboxamide] | 0.30 µM
8 | CCC(N)(CC)CNC(=O)c1c(C)nc2c(OCc3c(F)cccc3F)cccn12 [Example 253, N-(2-Amino-2-ethylbutyl)-8-[(2,6-difluorobenzyl)oxy]-2-methylimidazo[1,2-a]pyridine-3-carboxamide] | 0.10 µM
9 | CCCC(C)(N)CNC(=O)c1c(C)nc2c(OCc3c(F)cccc3F)cc(Cl)cn12 (single isomer, unassigned) [Example 246, ent-N-(2-Amino-2-methylpentyl)-6-chloro-8-[(2,6-difluorobenzyl)oxy]-2-methylimidazo[1,2-a]-pyridine-3-carboxamide] | 0.30 µM
10 | Cc1nc2c(OCc3c(F)cccc3F)cccn2c1C(=O)NCC(C)(N)COCc1ccccc1 (racemic) [Example 263, rac-N-[2-amino-3-(benzyloxy)-2-methylpropyl]-8-[(2,6-difluorobenzyl)oxy]-2-methylimidazo[1,2-a]pyridine-3-carboxamide] | 1.00 µM

Next, values leading:

Row | MEC | SMILES
11 | 0.03 µM | Cc1cc(OCc2c(F)cccc2F)c2nc(C)c(C(=O)NCC(C)(N)CCC(F)(F)F)n2c1 (single isomer, unassigned; enantiomer b) [Example 409, ent-N-(2-amino-5,5,5-trifluoro-2-methylpentyl)-8-[(2,6-difluorobenzyl)oxy]-2,6-dimethylimidazo[1,2-a]pyridine-3-carboxamide (Enantiomer B)]
12 | 0.30 µM | Cc1nc2c(OCc3c(F)cccc3F)cccn2c1C(=O)NC(CN)c1ccc(F)c(F)c1 (racemic) [Example 11, rac-N-[2-Amino-1-(3,4-difluorophenyl)ethyl]-8-[(2,6-difluorobenzyl)oxy]-2-methylimidazo[1,2-a]pyridine-3-carboxamide]
13 | 1.00 µM | Cc1cc(OCc2c(F)cccc2F)c2nc(C)c(C(=O)NCCN3C[C@@H](C)O[C@@H](C)C3)n2c1 [Example 167, 8-[(2,6-difluorobenzyl)oxy]-N-{2-[(2R,6S)-2,6-dimethylmorpholin-4-yl]ethyl}-2,6-dimethyl-imidazo[1,2-a]pyridine-3-carboxamide]
14 | 0.30 µM | Cc1cc(OCc2c(F)cccc2F)c2nc(C)c(C(=O)NC3CNCC(F)(F)C3)n2c1 (racemic) [Example 312, rac-8-[(2,6-difluorobenzyl)oxy]-N-(5,5-difluoropiperidin-3-yl)-2,6-dimethylimidazo[1,2-a]pyridine-3-carboxamide]
15 | 1.00 µM | Cc1cc(OCc2c(F)cccc2F)c2nc(C)c(C(=O)NCC(C)(N)CCO)n2c1 (racemic) [Example 270, rac-N-(2-Amino-4-hydroxy-2-methylbutyl)-8-[(2,6-difluorobenzyl)oxy]-2,6-dimethylimidazo[1,2-a]pyridine-3-carboxamide]
16 | 0.10 µM | Cc1cc(OCc2c(F)cccc2F)c2nc(C)c(C(=O)NCCN3CCOCC3)n2c1 [Example 136, 8-[(2,6-difluorobenzyl)oxy]-2,6-dimethyl-N-[2-(morpholin-4-yl)ethyl]imidazo[1,2-a]pyridine-3-carboxamide]
17 | 0.30 µM | COCC(C)(N)CNC(=O)c1c(C)nc2c(OCc3c(F)cccc3F)cc(C)cn12 (single isomer, unassigned) [Example 199, ent-N-(2-Amino-3-methoxy-2-methylpropyl)-8-[(2,6-difluorobenzyl)oxy]-2,6-dimethylimidazo-[1,2-a]pyridine-3-carboxamide]
18 | 0.30 µM | COc1cccc(C(CN)NC(=O)c2c(C)nc3c(OCc4c(F)cccc4F)cc(C)cn23)c1 (racemic) [Example 382, rac-N-[2-amino-1-(3-methoxyphenyl)ethyl]-8-[(2,6-difluorobenzyl)oxy]-2,6-dimethylimidazo[1,2-a]pyridine-3-carboxamide]
19 | 1.00 µM | Cc1nc2c(OCc3c(F)cccc3F)cc(Cl)cn2c1C(=O)NCC(N)C(C)C (single isomer, unassigned) [Example 212, ent-N-(2-Amino-3-methylbutyl)-6-chloro-8-[(2,6-difluorobenzyl)oxy]-2-methylimidazo[1,2-a]-pyridine-3-carboxamide]
20 | 1.00 µM | Cc1cc(OCc2c(F)cccc2F)c2nc(C)c(C(=O)NC(CN)c3ccc4ncccc4c3)n2c1 (racemic) [Example 395, rac-N-[2-amino-1-(quinolin-6-yl)ethyl]-8-[(2,6-difluorobenzyl)oxy]-2,6-dimethylimidazo[1,2-a]pyridine-3-carboxamide]
21 | 1.00 µM | Cc1cc(OCc2c(F)cccc2F)c2nc(C)c(C(=O)NCCNC(C)C)n2c1 (racemic) [Example 135, rac-8-[(2,6-difluorobenzyl)oxy]-N-[2-(isopropylamino)ethyl]-2,6-dimethylimidazo[1,2-a]pyridine-3-carboxamide]
22 | 0.30 µM | Cc1nc2c(OCc3c(F)cccc3F)cccn2c1C(=O)NC(CN)COC(C)C (racemic) [Example 63, rac-N-(1-Amino-3-isopropoxypropan-2-yl)-8-[(2,6-difluorobenzyl)oxy]-2-methylimidazo[1,2-a]-pyridine-3-carboxamide]
